# Assays:
# [1] = Cytotoxicity determination in HepG2.2.15 cells (CCK-8 cell viability); assay type: cell-based; settings: human, 6 days of compound treatment, CCK-8 assay
# Experimental: (§1) HepG2.2.15 (the HepG2.2.15 cell line can be produced by transfection of the HepG2 cell line as described in Sells, Chen, and Acs 1987 (Proc. Natl. Acad. Sci. USA 84:1005-1009), and the HepG2 cell line is available from ATCC® under number HB-8065™).
# (§2) HepG2.2.15 cells were plated into 96-well plate in 2% FBS culture medium at the density of 40,000 cells/well and 5,000 cells/well for HBV inhibitory activity and cytotoxicity determination, respectively. After incubation at 37° C., 5% CO2 overnight, cells were treated with medium containing compounds for 6 days with medium and compounds refreshed after 3 days of treatment. Each compound was tested in a 1:3 serial dilutions at 8 different concentrations in triplicate. The highest concentration of the compounds was 10 uM or 1 uM for anti-HBV activity assay and 100 uM for cytotoxicity determination.
# Cell viability was determined by CCK-8 assay. After 6 days of compounds treatment, 20 μl CCK-8 reagents were added to each well of cytotoxicity assay plates. Cell plates were incubated at 37° C., 5% CO2 for 2.5 h. The absorbance at 450 nm wavelength and the absorbance at 630 nm wavelength as reference was measured.
# (§3) EC50 and CC50 values are calculated by the […] PRISM software.
# HBV = experiment: Anti-HBV activity in HepG2.2.15 cells (HBV DNA in culture medium by qPCR); assay type: cell-based; settings: Hepatitis B virus, 144 h, 6 days of compound treatment
# Experimental: as §1, §2
# The change of HBV DNA level induced by the compounds was assessed by quantitative real-time polymerase chain reaction (qPCR). Briefly, the HBV DNA in the culture medium was extracted using QIAamp 96 DNA Blood Kit according to the manual and then quantified by real-time PCR assay using the primers and probe in the table 1 below.
# as §3
SMILES,CC50 at 6 days [1],EC50 (HBV)
"COC(=O)C1=C(CN2CCN3C(=O)N(CC(C)(C)C(=O)O)C[C@]3(C)C2)NC(c2nccs2)=N[C@H]1c1ccc(F)cc1Br (relative stereo) [Compound 3A, 3-((S*)-7-(((R*)-6-(2-Bromo-4-fluorophenyl)-5-(methoxycarbonyl)-2-(thiazol-2-yl)-3,6-dihydropyrimidin-4-yl)methyl)-8a-methyl-3-oxohexahydroimidazo[1,5-a]pyrazin-2(3H)-yl)-2,2-dimethylpropanoic Acid]",26.7 µM,0.038 µM
"CCOC(=O)C1=C(CN2CCN3C(=O)N([C@H]4CC[C@H](C(=O)O)CC4)C[C@]3(C)C2)NC(c2nccs2)=N[C@H]1c1cccc(F)c1C (relative stereo) [Compound 5A, (trans)-4-((S)-7-(((S*)-5-(Ethoxycarbonyl)-6-(3-fluoro-2-methylphenyl)-2-(thiazol-2-yl)-3,6-dihydropyrimidin-4-yl)methyl)-8a-methyl-3-oxohexahydroimidazo[1,5-a]pyrazin-2(3H)-yl)cyclohexanecarboxylic Acid]",9.2 µM,0.034 µM
"CCOC(=O)C1=C(CN2CCN3C(=O)N(CC(C)(C)C(=O)O)CC3(C)C2)NC(c2nccs2)=N[C@H]1c1cccc(F)c1C (single isomer, unassigned) [Compound 1B]",24.3 µM,0.009 µM
"CCOC(=O)C1=C(CN2CCN3C(=O)N(CC(C)(C)C(=O)O)C[C@]3(C)C2)NC(c2nccs2)=N[C@H]1c1cccc(F)c1Cl (single isomer, unassigned) [Compound 2A, (S*)-3-(-7-(((R*)-6-(2-Chloro-3-fluorophenyl)-5-(ethoxycarbonyl)-2-(thiazol-2-yl)-3,6-dihydropyrimidin-4-yl)methyl)-8a-methyl-3-oxohexahydroimidazo[1,5-a]pyrazin-2(3H)-yl)-2,2-dimethylpropanoic Acid]",19.4 µM,0.016 µM
"CCOC(=O)C1=C(CN2CCN3C(=O)N(CC(C)(C)C(=O)O)CC3(CC)C2)NC(c2nccs2)=N[C@H]1c1cccc(F)c1C (single isomer, unassigned) [Compound 4B, 3-((S*)-7-(((S)-5-(Ethoxycarbonyl)-6-(3-fluoro-2-methylphenyl)-2-(thiazol-2-yl)-3,6-dihydropyrimidin-4-yl)methyl)-8a-ethyl-3-oxohexahydroimidazo[1,5-a]pyrazin-2(3H)-yl)-2,2-dimethylpropanoic Acid]",18.5 µM,0.165 µM
"CCOC(=O)C1=C(CN2CCN3C(=S)N(CC(C)(C)C(=O)O)CC3(C)C2)NC(c2nccs2)=N[C@H]1c1cccc(F)c1C (single isomer, unassigned) [Compound 6A, 3-((R*)-7-(((S)-5-(Ethoxycarbonyl)-6-(3-fluoro-2-methylphenyl)-2-(thiazol-2-yl)-3,6-dihydropyrimidin-4-yl)methyl)-8a-methyl-3-thioxohexahydroimidazo[1,5-a]pyrazin-2(3H)-yl)-2,2-dimethylpropanoic Acid]",13 µM,0.012 µM
